# Values quoted from earlier work in patent publication US20210307321A1, “CAPSULE SUSPENSIONS WITH AGROCHEMICAL ACTIVE INGREDIENTS” (priority 2018, published 2021).
smiles,measurement,value
"O=C(Nc1ccc(F)cc1F)c1cccnc1Oc1cccc(C(F)(F)F)c1 [Diflufenican, 2′,4′-Difluoro-2-(a,a,a-trifluoro-m-tolyloxy)nicotinanilide]",solubility in non-water miscible solvents,very low solubility
